We go through 18 compounds from ChEMBL document CHEMBL1212921, “Design, synthesis, enzyme-inhibitory activity, and effect on human cancer cells of a novel series of jumonji domain-containing protein 2 histone demethylase inhibitors” (J Med Chem, 2010).

Activity calls are given as the source filed them. No cut-off for these calls is given here.

One test has as its target Egl nine homolog 1 (Homo sapiens, UniProt Q9GZT9). Kind of test: Inhibition of human recombinant PHD2 expressed in Sf9 cells by time-resolved fluorescence assay.
For test [1], the target named is T1, Lysine-specific demethylase 4A (Homo sapiens, UniProt O75164).
T1 sequence (O75164 whole entry): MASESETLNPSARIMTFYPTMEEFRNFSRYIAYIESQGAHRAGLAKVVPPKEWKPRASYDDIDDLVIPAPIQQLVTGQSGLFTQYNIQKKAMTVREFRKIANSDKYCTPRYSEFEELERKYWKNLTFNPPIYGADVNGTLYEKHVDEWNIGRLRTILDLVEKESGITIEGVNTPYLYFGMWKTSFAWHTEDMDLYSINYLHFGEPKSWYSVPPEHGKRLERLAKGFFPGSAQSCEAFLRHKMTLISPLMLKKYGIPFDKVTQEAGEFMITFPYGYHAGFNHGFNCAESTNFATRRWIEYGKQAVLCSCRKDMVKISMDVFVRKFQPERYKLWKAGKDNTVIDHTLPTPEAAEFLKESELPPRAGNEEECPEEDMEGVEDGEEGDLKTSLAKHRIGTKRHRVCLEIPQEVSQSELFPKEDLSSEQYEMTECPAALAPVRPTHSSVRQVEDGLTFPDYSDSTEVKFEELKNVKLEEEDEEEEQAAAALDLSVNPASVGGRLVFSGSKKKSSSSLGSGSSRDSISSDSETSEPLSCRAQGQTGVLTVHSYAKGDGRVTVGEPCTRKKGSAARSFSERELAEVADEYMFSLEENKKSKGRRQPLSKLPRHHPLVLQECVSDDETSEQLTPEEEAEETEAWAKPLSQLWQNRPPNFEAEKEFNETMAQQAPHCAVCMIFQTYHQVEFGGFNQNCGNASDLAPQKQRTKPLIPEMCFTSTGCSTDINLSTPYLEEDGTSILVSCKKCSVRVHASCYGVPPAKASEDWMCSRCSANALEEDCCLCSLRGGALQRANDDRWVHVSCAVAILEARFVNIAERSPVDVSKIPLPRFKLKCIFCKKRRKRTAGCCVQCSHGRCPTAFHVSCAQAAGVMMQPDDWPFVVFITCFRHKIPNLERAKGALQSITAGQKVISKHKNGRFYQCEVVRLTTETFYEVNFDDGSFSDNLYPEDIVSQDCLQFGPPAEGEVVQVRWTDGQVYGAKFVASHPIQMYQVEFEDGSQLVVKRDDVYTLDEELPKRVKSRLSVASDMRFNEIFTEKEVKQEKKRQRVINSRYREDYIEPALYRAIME
Kind of test: Inhibition of recombinant His-tagged JMJD2A expressed in Escherichia coli Rosetta 2 (DE3) pLysS cells by formaldehyde dehydrogenase-coupled assay.

Another test has as its target Prolyl hydroxylase EGLN2 (Homo sapiens, UniProt Q96KS0). Kind of test: Inhibition of human recombinant PHD1 expressed in Sf9 cells by time-resolved fluorescence assay.
In test [2] the target is T2, Lysine-specific demethylase 4C (Homo sapiens, UniProt Q9H3R0).
T2 sequence (Q9H3R0 whole entry): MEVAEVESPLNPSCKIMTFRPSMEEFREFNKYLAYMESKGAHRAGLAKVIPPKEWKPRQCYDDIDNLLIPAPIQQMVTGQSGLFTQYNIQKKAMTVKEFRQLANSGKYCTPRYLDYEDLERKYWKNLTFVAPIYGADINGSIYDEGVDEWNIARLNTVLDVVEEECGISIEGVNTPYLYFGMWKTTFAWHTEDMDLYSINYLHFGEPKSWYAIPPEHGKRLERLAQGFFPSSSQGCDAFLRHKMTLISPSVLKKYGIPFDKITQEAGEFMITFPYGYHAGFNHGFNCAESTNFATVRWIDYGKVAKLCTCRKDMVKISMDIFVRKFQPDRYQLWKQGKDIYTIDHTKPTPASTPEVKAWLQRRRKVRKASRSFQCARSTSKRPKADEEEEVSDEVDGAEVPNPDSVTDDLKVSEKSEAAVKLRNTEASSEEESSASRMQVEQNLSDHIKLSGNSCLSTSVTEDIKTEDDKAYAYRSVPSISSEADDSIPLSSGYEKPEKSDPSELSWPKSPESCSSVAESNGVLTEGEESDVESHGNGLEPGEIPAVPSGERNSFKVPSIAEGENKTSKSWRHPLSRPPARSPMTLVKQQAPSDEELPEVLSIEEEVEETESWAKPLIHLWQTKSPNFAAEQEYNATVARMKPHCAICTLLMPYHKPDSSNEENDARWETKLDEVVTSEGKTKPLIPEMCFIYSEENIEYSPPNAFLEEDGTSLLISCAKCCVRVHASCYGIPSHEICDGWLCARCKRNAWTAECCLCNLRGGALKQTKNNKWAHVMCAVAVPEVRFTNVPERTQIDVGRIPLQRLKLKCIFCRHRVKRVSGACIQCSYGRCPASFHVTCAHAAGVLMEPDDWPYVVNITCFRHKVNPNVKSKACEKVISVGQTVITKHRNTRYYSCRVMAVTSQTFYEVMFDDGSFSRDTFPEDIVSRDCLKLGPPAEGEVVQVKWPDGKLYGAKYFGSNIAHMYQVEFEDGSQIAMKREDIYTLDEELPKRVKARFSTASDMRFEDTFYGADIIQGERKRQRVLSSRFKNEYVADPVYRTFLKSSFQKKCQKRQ
The experiment in a line: Inhibition of recombinant His-tagged JMJD2C expressed in Escherichia coli Rosetta 2 (DE3) pLysS cells by formaldehyde dehydrogenase-coupled assay.

The subject of the next test is PC-3. Kind of test: Cytotoxicity against human PC3 cells at 30 uM after 72 hrs by Alamar blue assay. It counts as functional, cell-based. (The colour change of resazurin is a common sign of viable cells or microbes.)
In test [3] the test system is LNCaP. The experiment in a line: Cytotoxicity against human LNCAP cells expressing JMJD2C at 30 uM after 72 hrs by Alamar blue assay. It counts as functional, cell-based.
Test [4] has as its system LNCaP. The experiment in a line: Cytotoxicity against human LNCAP cells expressing JMJD2C at 100 uM after 72 hrs by Alamar blue assay. It counts as functional, cell-based.
A further test has as its system KYSE-150. The experiment in a line: Cytotoxicity against human KYSE-150 cells at 30 uM after 72 hrs by Alamar blue assay. It counts as functional, cell-based.
In another test the test system is HCT-116. The experiment in a line: Cytotoxicity against human HCT116 cells at 30 uM after 72 hrs by Alamar blue assay. The format is functional, cell-based.
For test [5], the system named is LNCaP. The experiment in a line: Cytotoxicity against human LNCAP cells expressing JMJD2C after 72 hrs by Alamar blue assay. The format is functional.

Prolyl hydroxylase EGLN2, sequence (Q96KS0 whole entry): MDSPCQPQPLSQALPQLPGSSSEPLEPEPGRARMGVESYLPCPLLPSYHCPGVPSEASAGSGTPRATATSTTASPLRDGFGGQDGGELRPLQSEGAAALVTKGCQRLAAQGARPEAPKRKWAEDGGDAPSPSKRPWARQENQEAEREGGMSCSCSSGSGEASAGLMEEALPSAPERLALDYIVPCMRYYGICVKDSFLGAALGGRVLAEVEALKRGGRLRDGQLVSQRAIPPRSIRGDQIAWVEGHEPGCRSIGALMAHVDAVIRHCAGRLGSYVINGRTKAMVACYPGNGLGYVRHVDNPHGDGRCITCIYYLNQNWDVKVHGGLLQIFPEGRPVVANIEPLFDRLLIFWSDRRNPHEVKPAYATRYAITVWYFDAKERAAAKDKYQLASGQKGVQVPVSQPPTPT
Egl nine homolog 1, sequence (Q9GZT9 whole entry): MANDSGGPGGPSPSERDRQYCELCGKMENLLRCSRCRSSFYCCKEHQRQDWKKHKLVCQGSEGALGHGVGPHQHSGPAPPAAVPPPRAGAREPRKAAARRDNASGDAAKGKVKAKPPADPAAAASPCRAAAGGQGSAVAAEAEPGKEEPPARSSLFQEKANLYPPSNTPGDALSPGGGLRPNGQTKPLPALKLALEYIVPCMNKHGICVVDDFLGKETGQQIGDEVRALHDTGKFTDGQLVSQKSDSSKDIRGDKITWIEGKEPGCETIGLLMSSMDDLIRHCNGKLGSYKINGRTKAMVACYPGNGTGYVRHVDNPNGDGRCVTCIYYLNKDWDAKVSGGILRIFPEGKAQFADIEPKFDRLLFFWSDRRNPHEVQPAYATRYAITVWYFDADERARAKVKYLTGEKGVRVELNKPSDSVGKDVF

A word on the IC50: it is the concentration needed to halve the response being measured. For `CCCCN(C)CCCCCCCCC(=O)N(O)CCC(=O)O`, the IC50 is more than 100 µM at Egl nine homolog 1, 3.2 µM in test [1] and more than 100 µM at Prolyl hydroxylase EGLN2 (read-out: IC50).

Take `CN(C)CCCCCCC(=O)N(O)CCC(=O)O`: the results for the IC50 in test [1] and in [2] were 8.7 µM and 2.7 µM, respectively.

Turning to `CN(C)CCCCCCCC(=O)N(O)CCC(=O)O`, the IC50 at Egl nine homolog 1 is more than 100 µM; in [1] it was 6 µM; in [2] it was 1.5 µM; at Prolyl hydroxylase EGLN2 (read-out: IC50) it was more than 100 µM.

For `O=C(O)CNC(=O)C(=O)O` [N-OXALYLGLYCINE], the IC50 in [1] was 250 µM; in test [2], 500 µM; at Prolyl hydroxylase EGLN2 (read-out: IC50), 2.1 µM.

Regarding `CC(C)CCCCCC(=O)N(O)CCC(=O)O`, the IC50 in test [1] was determined as 120 µM; in test [2] it was 74 µM.

For `CC(=O)N(O)CCC(=O)O`, the IC50 is more than 100 µM on Egl nine homolog 1, 14 µM in [1], 34 µM in test [2] and more than 100 µM at Prolyl hydroxylase EGLN2 (read-out: IC50).

With `COC(=O)CCN(O)C(=O)CCCCCCCCN(C)C`, the outcome in the test on PC-3, in the test with LNCaP [3], in the test with LNCaP [4], in the test on KYSE-150 and in the test on HCT-116 was inactive.

With `CN(C)CCCCCCCCCCC(=O)N(O)CCC(=O)O`, the IC50 in test [1] was found to be 11 µM; in [2], 5.2 µM.

Take `CN(C)CCCCCCCCCC(=O)N(O)CCC(=O)O`: the IC50 at Egl nine homolog 1 is more than 100 µM; in [1], 5.5 µM; in test [2], 1.6 µM; on Prolyl hydroxylase EGLN2 (read-out: IC50) it was more than 100 µM.

For the compound `CN(C)CCCCCCCCC(=O)N(O)CCC(=O)O`, the outcome in the test with LNCaP [3] and in the test on LNCaP [4] was inactive. Moreover, the IC50 on Egl nine homolog 1 is more than 100 µM; in test [1] it was 3 µM; in test [2], 1 µM; at Prolyl hydroxylase EGLN2 (read-out: IC50), more than 100 µM.

Turning to `O=C(O)c1ccnc(C(=O)O)c1`, at Prolyl hydroxylase EGLN2, the IC50 came out at 1.5 µM.

Regarding `CN(C)CCCCCC(=O)N(O)CCC(=O)O`, the half-inhibitory concentration (IC50) was 17 µM in test [1] and 10 µM in test [2].

Consider `CN(C)CCCCCCCCN(O)C(=O)CCC(=O)O`, for which the IC50 is more than 100 µM on Egl nine homolog 1, 8.1 µM in test [1], 2 µM in test [2] and more than 100 µM at Prolyl hydroxylase EGLN2 (read-out: IC50).

As for `CNCCCCCCCCC(=O)N(O)CCC(=O)O`, the results for the IC50 in test [1] and in test [2] were 4.4 µM and 1.7 µM, respectively.

Usually GI50 stands for the concentration giving 50% growth inhibition. Read a high GI50 as less potent growth inhibition. As for `N[C@@H]1C[C@H]1c1ccc(OCC[C@H](NC(=O)c2ccccc2)C(=O)NCc2ccccc2)cc1`, in the test on LNCaP [5], the GI50 was determined as 36 µM.

Consider `CN(CCCCCCCCC(=O)N(O)CCC(=O)O)Cc1ccccc1`, for which the results for the IC50 in test [1] and in [2] were 2 µM and 1.3 µM, respectively.

In the case of `COC(=O)c1ccnc(C(=O)OC)c1`, the outcome with PC-3, in the test with LNCaP [3], in the test on LNCaP [4] and with HCT-116 was inactive.

With `CN(C)CCCCCCCCCCCC(=O)N(O)CCC(=O)O`, the figures for the IC50 in test [1] and in test [2] were 22 µM and 8.8 µM, respectively.
